Experimental data reported in US20250154686A1, “COMPOUND LIBRARY” (CHUGAI SEIYAKU KABUSHIKI KAISHA, priority 2021, published 2025).

Molecular target: T1, Bcl-2 protein (Recombinant Human Bcl-2 Protein) (Homo sapiens, UniProt P10415)
T1 construct: purchased Novus Biologicals NBP2-34889
Experiment: AS-MS evaluation of binding of the Example 4 mixture library (1200 compounds/well) to Bcl-2, ASMS ratio (%)
Settings: AS-MS, Example 4 mixture library; for ASMS ratio (%) n = 1: Bcl-2, replicate n = 1; for ASMS ratio (%) n = 2: Bcl-2, replicate n = 2
Summary of the method: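 A pooled 1200-compound mixture (20 nM each final) was incubated with 20 μM recombinant human Bcl-2 in pH 7.4 Tris-HCl buffer with NaCl, Tween-20 and DTT for 1 h at 23° C. in the dark. Bound ligands were separated by spin-column SEC and measured by reverse-phase LC/MS; ASMS ratio (%) was calculated against protein-free unfiltered standard and protein-free SEC blank.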

T1 sequence (P10415 whole entry): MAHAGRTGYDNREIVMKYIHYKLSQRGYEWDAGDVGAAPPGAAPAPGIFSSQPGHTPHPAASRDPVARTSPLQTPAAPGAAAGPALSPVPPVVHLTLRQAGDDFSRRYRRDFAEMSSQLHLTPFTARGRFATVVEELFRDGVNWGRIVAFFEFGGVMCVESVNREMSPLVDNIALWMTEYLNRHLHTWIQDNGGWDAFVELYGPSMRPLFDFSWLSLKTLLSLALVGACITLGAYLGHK

## CCOc1cncc(C#Cc2cc(C(=O)N3CCN(c4ccc(C(=O)NS(=O)(=O)c5ccc(NCCSc6ccccc6)c(C(F)(F)F)c5)nn4)CC3)cc(C(F)(F)F)c2)c1 [Compound B2R020-01, 6-[4-[3-[2-(5-Ethoxypyridin-3-yl)ethynyl]-5-(trifluoromethyl)benzoyl]piperazin-1-yl]-N-[4-(2-phenylsulfanylethylamino)-3-(trifluoromethyl)phenyl]sulfonylpyridazine-3-carboxamide]
  ASMS ratio (%) n = 1: 10.8%
  ASMS ratio (%) n = 2: −17.7%

## CCOc1cccc(-c2cnn(-c3cc(C(=O)N4CCN(c5ccc(C(=O)NS(=O)(=O)c6ccc(NCCSc7ccccc7)c(C(F)(F)F)c6)nn5)CC4)cc(C(F)(F)F)c3)c2)c1 [Compound B2R021-01, 6-[4-[3-[4-(3-Ethoxyphenyl)pyrazol-1-yl]-5-(trifluoromethyl)benzoyl]piperazin-1-yl]-N-[4-(2-phenylsulfanylethylamino)-3-(trifluoromethyl)phenyl]sulfonylpyridazine-3-carboxamide]
  ASMS ratio (%) n = 1: 13.0%
  ASMS ratio (%) n = 2: 0.0%

## CCOc1cncc(-c2cnn(-c3cc(C(=O)N4CCN(c5ccc(C(=O)NS(=O)(=O)c6ccc(NCCSc7ccccc7)c(C(F)(F)F)c6)nn5)CC4)cc(C(F)(F)F)c3)c2)c1 [Compound B2R022-01, 6-[4-[3-[4-(5-Ethoxypyridin-3-yl)pyrazol-1-yl]-5-(trifluoromethyl)benzoyl]piperazin-1-yl]-N-[4-(2-phenylsulfanylethylamino)-3-(trifluoromethyl)phenyl]sulfonylpyridazine-3-carboxamide]
  ASMS ratio (%) n = 1: 14.5%
  ASMS ratio (%) n = 2: 15.8%

## CCOc1cccc(-c2csc(C(=O)N3CCN(c4ccc(C(=O)NS(=O)(=O)c5ccc(NCCSc6ccccc6)c(C(F)(F)F)c5)cc4)CC3)c2)c1 [Compound B2R023-01, 4-[4-[4-(3-Ethoxyphenyl)thiophene-2-carbonyl]piperazin-1-yl]-N-[4-(2-phenylsulfanylethylamino)-3-(trifluoromethyl)phenyl]sulfonylbenzamide]
  ASMS ratio (%) n = 1: 0.0%
  ASMS ratio (%) n = 2: −15.5%

## CCOc1cncc(-c2csc(C(=O)N3CCN(c4ccc(C(=O)NS(=O)(=O)c5ccc(NCCSc6ccccc6)c(C(F)(F)F)c5)cc4)CC3)c2)c1 [Compound B2R024-01, 4-[4-[4-(5-Ethoxypyridin-3-yl)thiophene-2-carbonyl]piperazin-1-yl]-N-[4-(2-phenylsulfanylethylamino)-3-(trifluoromethyl)phenyl]sulfonylbenzamide]
  ASMS ratio (%) n = 1: 0.0%
  ASMS ratio (%) n = 2: −1.2%

## CCOc1cccc(-c2ccc(C(=O)N3CCN(c4ccc(C(=O)NS(=O)(=O)c5ccc(NCCSc6ccccc6)c(C(F)(F)F)c5)cc4)CC3)cc2C)c1 [Compound B2R025-01, 4-[4-[4-(3-Ethoxyphenyl)-3-methylbenzoyl]piperazin-1-yl]-N-[4-(2-phenylsulfanylethylamino)-3-(trifluoromethyl)phenyl]sulfonylbenzamide]
  ASMS ratio (%) n = 1: −1.0%
  ASMS ratio (%) n = 2: −2.4%

## CCOc1cncc(-c2ccc(C(=O)N3CCN(c4ccc(C(=O)NS(=O)(=O)c5ccc(NCCSc6ccccc6)c(C(F)(F)F)c5)cc4)CC3)cc2C)c1 [Compound B2R026-01, 4-[4-[4-(5-Ethoxypyridin-3-yl)-3-methylbenzoyl]piperazin-1-yl]-N-[4-(2-phenylsulfanylethylamino)-3-(trifluoromethyl)phenyl]sulfonylbenzamide]
  ASMS ratio (%) n = 1: 1.7%
  ASMS ratio (%) n = 2: −4.6%

## CCOc1cccc(-c2ccc(C(=O)N3CCN(c4ccc(C(=O)NS(=O)(=O)c5ccc(NCCSc6ccccc6)c(C(F)(F)F)c5)cc4)CC3)cc2F)c1 [Compound B2R027-01, 4-[4-[4-(3-Ethoxyphenyl)-3-fluorobenzoyl]piperazin-1-yl]-N-[4-(2-phenylsulfanylethylamino)-3-(trifluoromethyl)phenyl]sulfonylbenzamide]
  ASMS ratio (%) n = 1: −3.7%
  ASMS ratio (%) n = 2: 1.2%
